Assays:
[1] = system: human embryonic stem cell line H9; experiment: FACS of protein markers after activin A treatment, hES cells on mouse embryonic fibroblasts (Table IIA); format: cell-based; settings: for CD9 protein expression / CXCR4 protein expression / ECAM protein expression / NCAM protein expression / SSEA-3 protein expression: H9, FACS
Text: The level of expression of definitive endoderm markers was examined by PCR (FIG. 1), FACS (results summarized in Table II), and immunohistochemistry (FIG. 2).
CXCR4 positive cells were also highly positive for C-kit, EPCAM, CD99, and negative for CD9. The expression pattern for these markers was consistent among all three hES cell lines examined (Table IIB for H7 and Table IIC for H1). […] In parallel, almost 100% of the differentiated cells were […] (FIG. 2).
Adhered cells were removed from culture plates by five-minute incubation with TrypLE™ Express solution (Invitrogen, CA). Released cells were resuspended in human embryonic stem cell culture medium and recovered by centrifugation, followed by washing and resuspending the cells in a staining buffer consisting of 2% BSA, 0.05% sodium azide in PBS (Sigma, MO). As appropriate, the cells were Fc-receptor blocked for 15 minutes using a 0.1% γ-globulin (Sigma) solution. […] Controls included appropriate isotype matched antibodies, unstained cells, and cells stained only with secondary conjugated antibody. All incubations with antibodies were performed for 30 mins at 4° C. after which the cells were washed with the staining buffer. Samples that were stained with unconjugated primary antibodies were incubated for an additional 30 mins at 4° C. with secondary conjugated PE or —APC labeled antibodies. See Table I for a list of secondary antibodies used. Washed cells were pelleted and resuspended in the staining buffer, and the cell surface molecules were identified using a FACS Array (BD Biosciences) instrument, collecting at least 10,000 events.

[2] = system: human embryonic stem cell line H9; settings: activin A or retinoic acid alone
Protocol: Cultures were harvested and samples of mRNA were collected for analysis.
Cells seeded on 0.1% Matrigel (BD) coated dishes were fixed with 4% paraformaldheyde for 20 min at room temperature. Fixed cells were blocked for 1 h at room temperature with PBS/0.1%BSA/10% normal chick serum /0.5% Triton X-100 and then incubated overnight with primary antibodies in PBS/0.1%BSA/10% normal chick serum at 4° C. After three washes in PBS/0.1% BSA, fluorescent secondary antibodies at a 1:100 dilution in PBS were incubated with cells for 1 h at room temperature to allow binding. Control samples included reactions where the primary antibody was omitted or where the primary antibody was replaced with corresponding matched negative control immunoglobulins at the same concentration as the primary antibodies. […]
Real-time PCR amplification and quantitative analysis: Unless otherwise stated, all reagents were purchased from Applied Biosystems. […] For each primer/probe set, a Ct value was determined as the cycle number at which the fluorescence intensity reached a specific value in the middle of the exponential region of amplification. Relative gene expression levels were calculated using the comparative Ct method. […] The normalized amount of target was calculated as 2-ΔCt, assuming amplification to be 100% efficiency. […]

[3] = system: H9P49 and H1P46 embryonic stem cells; experiment: Definitive endoderm on MATRIGEL: effective dose of activin A with GSK-3B inhibitor or Wnt-3a; format: cell-based, human
Text: FIG. 31 panels a-d is for H9P49 cells and panels e-f is for H1P46 cells.

[4] = system: human embryonic stem cell line H9; experiment: Formation of pancreatic endocrine cells with gamma-secretase inhibitor L-685,458 (PCR); format: cell-based; settings: activin A alone or in combination with retinoic acid and FGFs
Protocol: After this time interval, the cells were then treated for six days with combinations of retinoic acid and FGF as outlined in Example 2, then the culture medium was removed and replaced with medium comprising DMEM/F12 with 2% FBS, containing the γ-secretase inhibitors L-685,458 at 10 μM for three days.
Final data were expressed relative to a calibrator sample.

[5] = system: H9P46 embryonic stem cells; experiment: Definitive endoderm on […]: effective dose of Wnt-3a (FACS, PCR, cell number); format: cell-based, human
Protocol: Control cultures were not treated with Wnt-3a. FIG. 27, panel a depicts the expression of CXCR4 by FACS at day 5 in the absence of Wnt-3a, b) 10 ng/ml Wnt-3a, c) 20 ng/ml Wnt-3a and d) 50 ng/ml Wnt-3a. In the absence of Wnt-3a the expression of CXCR4 was very low. […] Real-time PCR results (FIG. 28, panel a) also confirm this finding.
In a separate study, H9p52 cells were plated on 1:30 low growth factor […]™. For the first 2 days of the DE protocol a range of Wnt-3a doses was used: 10 ng/ml, 5 ng/ml and 1 ng/ml. […] The number of cells at the end of the experiment is noted in FIG. 28, panel c.

[6] = system: H7P44 and H9P46 embryonic stem cells; experiment: Definitive endoderm on […]: role of Wnt ligands (FACS CXCR4, real-time PCR); format: cell-based, human
Protocol: In some of the cultures 20 ng/ml Wnt-3a (Catalog#1324-WN-002, R&D Systems, MN), 20 ng/ml Wnt-5a (Catalog#654-WN-010, R&D Systems, MN), 25 ng/ml Wnt-7a (Catalog#3008-WN-025, R&D Systems, MN), or 25 ng/ml Wnt-5b (Catalog#3006-WN-025, R&D Systems, MN) was added throughout the five day treatment. FIG. 24 depicts phase contrast images of H9P46 definitive endoderm culture in the presence of high concentration of (a) AA or (b) AA+20 ng/ml Wnt-3a. FIG. 25 depicts the expression of CXCR4 by FACS at day 5 for H7P44, and H9P46 lines cultured on […]™ (1:30 dilution) and exposed to the DE protocol+Wnt-3a (FIG. 25, panels b and d) and −Wnt-3a (FIG. 25, panels a and c).

[7] = system: H9P46-P48 embryonic stem cells; experiment: Definitive endoderm on […]: effect of GSK-3B inhibitor IX (FACS CXCR4, PCR); format: cell-based, human; settings: 20 ng/ml Wnt-3a or 100-1000 nM GSK-3B inhibitor, day 5
Protocol: In order to confirm that the effect of Wnt-3a was through the Wnt pathway, a GSK-3 inhibitor was used to activate the downstream targets of Wnt, such as beta catenin. […] FIG. 29, panel a depicts the expression of CXCR4 by FACS at day 5 in the absence of Wnt-3a or GSK-3B inhibitor, b) +20 ng/ml Wnt-3a, c) +1000 nM GSK-3B inhibitor IX, d) +500 nM GSK-3B inhibitor IX, e) +100 nM GSK-3B inhibitor IX, f) +10 nM GSK-3B inhibitor IX, g) +100 nM GSK-3B inhibitor IX for days 1-2, and h) +10 nM GSK-3B inhibitor IX for days 1-2.

[8] = system: SA002 P38 cells; experiment: Differentiation of SA002 ES line on […] to definitive endoderm (real-time PCR, FACS); format: cell-based, human; settings: 20 ng/ml Wnt-3a with 100 ng/ml activin A
Text: Expression of CXCR4 is depicted in FIG. 45: a) AA treatment b) AA+Wnt-3a c) AA+GSK-3B inhibitor.

[9] = system: human embryonic stem cell line H1 at passage 55; experiment: Definitive endoderm on human serum coated plates (real-time PCR); format: cell-based; settings: with activin A, vs activin A only
Protocol: Cultures of the human embryonic stem cell line H1 at passage 55 were grown and differentiated on human serum (Sigma, #H1388, MO) coated plates. 0.5 ml of human serum was added to each well of 6 well tissue culture treated dish, incubated for 1 hr at room temperature, and aspirated before adding human embryonic stem cells. […] These findings parallel our findings for human embryonic stem cells cultured on […]™ or human fibronectin coated plates.

Substance: Activin A: activin A (a member of the TGFβ superfamily), R&D Systems; 'w/o wnt' in Table VII = 100 ng/ml Activin A without Wnt3a
- expression of E-cadherin and N-cadherin ([1]; FACS, following activin A treatment): did not change
- CD9 protein expression ([1]; 2-DAY activin A 100 ng/ml): 29.42%
- CXCR4 protein expression ([1]; 2-DAY activin A 100 ng/ml): 20.2%
- ECAM protein expression ([1]; 2-DAY activin A 100 ng/ml): 20.87%
- NCAM protein expression ([1]; 2-DAY activin A 100 ng/ml): 5.04%
- SSEA-3 protein expression ([1]; 2-DAY activin A 100 ng/ml): 92.14%
- CD9 protein expression ([1]; 5-DAY activin A 100 ng/ml): 7.27%
- CXCR4 protein expression ([1]; 5-DAY activin A 100 ng/ml): 55.26%
- ECAM protein expression ([1]; 5-DAY activin A 100 ng/ml): 14.17%
- NCAM protein expression ([1]; 5-DAY activin A 100 ng/ml): 21.1%
- SSEA-3 protein expression ([1]; 5-DAY activin A 100 ng/ml): 42.9%
- CD9 protein expression ([1]; 8-DAY activin A 100 ng/ml): 4.1%
- CXCR4 protein expression ([1]; 8-DAY activin A 100 ng/ml): 56.92%
- ECAM protein expression ([1]; 8-DAY activin A 100 ng/ml): 1.02%
- NCAM protein expression ([1]; 8-DAY activin A 100 ng/ml): 8.86%
- SSEA-3 protein expression ([1]; 8-DAY activin A 100 ng/ml): 22.05%
- CXCR4 protein by FACS analysis ([1]; following activin A treatment): increase
- expression of Pdx1 [2]: did not induce
- expression of definitive endoderm markers ([3]; 50 ng/ml of AA+20 ng/ml of Wnt-3A or 100 nM GSK-3B inhibitor IX): robust expression
- cell fate at lower doses of activin A ([3]; lower doses of activin A): formation of extraembryonic endoderm
- expression of Ngn3 or insulin [4]: did not induce

Substance: Wnt-3a
- number of CXCR4 positive cells ([5]; 10-50 ng/ml Wnt-3a, day 5): significantly increased
- Wnt3a dose sufficient to reach optimal cell expansion and definitive endoderm differentiation ([5]; for 2 days, H9p52 on 1:30 low growth factor MATRIGEL): 10 ng/mL
- expression of CXCR4 (CD184) by FACS ([6]; 20 ng/ml Wnt-3a in DE cultures, day 5, H7P44 and H9P46): robust expression
- expression of definitive endoderm markers (real-time PCR) ([6]; low serum+AA+/-Wnt ligands, H7 and H9, five days): significant up regulation
- number of CXCR4 positive cells [7]: significantly increased
- expression of DE markers in SA002 line [8]: required addition of Wnt-3A for robust expression
- expression of definitive endoderm markers [9]: Robust expression

Reference: US9096832B2, “Differentiation of human embryonic stem cells” (LifeScan, Inc., priority 2007, dated 2015)
